{"source": "patent US20230085307A1", "about": "“PYRIDAZINONE COMPOUND AND HERBICIDE” (NISSAN CHEMICAL CORPORATION, priority 2019, published 2023)", "key": {"[1]": {"system": "barnyard grass", "test": "Test Example 4: herbicidal effect by soil treatment (Table 19, symbol H)", "format": "in vivo, barnyard grass (Echinochloa crus-galli)", "conditions": "amount of applied herbicide 320 g/ha", "procedure,_shortened": "(§1)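 Emulsion of test compound, water-diluted to predetermined amount, sprayed on soil after sowing (seed depth ~1.5 cm, sterilized diluvial soil). Greenhouse, 25–30° C. Effect graded at three weeks post-spray.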"}, "[2]": {"system": "southern crabgrass", "test": "Test Example 5: herbicidal effect by foliage application, plastic box (Table 20, symbol F)", "format": "in vivo, southern crabgrass (Digitaria ciliaris)", "conditions": "foliage application, 320 g/ha, three weeks after application", "procedure,_shortened": "(§2)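 Post-emergence foliar test in sterilized diluvial soil. Compound applied as water-diluted emulsion at a predetermined rate to 14-day-old plants; evaluation at three weeks.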"}, "[3]": {"system": "rice flat sedge", "test": "Test Example 3: herbicidal effect by foliage application, Wagner pot (Table 18, symbol E)", "format": "in vivo, rice flat sedge (Cyperus iria)", "conditions": "320 g/ha", "procedure,_shortened": "(§3)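 Plants were sown in alluvial soil held under 0.1–0.5 cm standing water and grown 14 days in a greenhouse at 25–30 °C. An emulsifiable formulation, water-diluted to the set dose, was then sprayed onto the foliage, and effects were scored three weeks later using previously defined criteria.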"}, "[4]": {"system": "oval-leafed pondweed", "test": "Test Example 1: herbicidal activity, application before weed generation under submerged conditions (Table 16, symbol C)", "format": "in vivo, oval-leafed pondweed (Monochoria vaginalis)", "conditions": "amount of applied herbicide 320 g/ha", "procedure,_shortened": "(§4)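 Emulsion formulation, water-diluted to set dose, was put onto the flooded surface (4 cm depth, alluvial soil) the same day weeds were sown and 2.5-leaf rice transplanted. After 3 weeks at 25-30 °C under glass, each species was rated 0 (≤5% kill) to 5 (≥90% kill).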"}, "[5]": {"system": "late watergrass", "test": "Test Example 1: herbicidal activity, application before weed generation under submerged conditions (Table 16, symbol A)", "format": "in vivo, late watergrass (Echinochloa oryzicola)", "conditions": "amount of applied herbicide 320 g/ha", "procedure,_shortened": "as §4"}, "[6]": {"system": "persian speedwell", "test": "Test Example 4: herbicidal effect by soil treatment (Table 19, symbol R)", "format": "in vivo, Persian speedwell (Veronica persica)", "conditions": "amount of applied herbicide 320 g/ha", "procedure,_shortened": "as §1"}, "[7]": {"system": "redroot pigweed", "test": "Test Example 4: herbicidal effect by soil treatment (Table 19, symbol N)", "format": "in vivo, redroot pigweed (Amaranthus retroflexus)", "conditions": "amount of applied herbicide 320 g/ha", "procedure,_shortened": "as §1"}, "[8]": {"system": "barnyard grass", "test": "Test Example 3: herbicidal effect by foliage application, Wagner pot (Table 18, symbol H)", "format": "in vivo, barnyard grass (Echinochloa crus-galli)", "conditions": "320 g/ha", "procedure,_shortened": "as §3"}, "[9]": {"system": "blackgrass", "test": "Test Example 4: herbicidal effect by soil treatment (Table 19, symbol J)", "format": "in vivo, blackgrass (Alopecurus myosuroides)", "conditions": "amount of applied herbicide 320 g/ha", "procedure,_shortened": "as §1"}, "[10]": {"system": "windgrass", "test": "Test Example 4: herbicidal effect by soil treatment (Table 19, symbol L)", "format": "in vivo, windgrass (Apera spica-venti)", "conditions": "amount of applied herbicide 320 g/ha", "procedure,_shortened": "as §1"}, "[11]": {"system": "false cleavers", "test": "Test Example 4: herbicidal effect by soil treatment (Table 19, symbol Q)", "format": "in vivo, false cleavers (Galium spurium)", "conditions": "amount of applied herbicide 320 g/ha", "procedure,_shortened": "as §1"}, "[12]": {"system": "redroot pigweed", "test": "Test Example 5: herbicidal effect by foliage application, plastic box (Table 20, symbol N)", "format": "in vivo, redroot pigweed (Amaranthus retroflexus)", "conditions": "foliage application, 320 g/ha, three weeks after application", "procedure,_shortened": "as §2"}, "[13]": {"system": "velvetleaf", "test": "Test Example 4: herbicidal effect by soil treatment (Table 19, symbol M)", "format": "in vivo, velvetleaf (Abutilon theophrasti)", "conditions": "amount of applied herbicide 320 g/ha", "procedure,_shortened": "as §1"}, "[14]": {"system": "barnyard grass", "test": "Test Example 5: herbicidal effect by foliage application, plastic box (Table 20, symbol H)", "format": "in vivo, barnyard grass (Echinochloa crus-galli)", "conditions": "foliage application, 320 g/ha, three weeks after application", "procedure,_shortened": "as §2"}, "[15]": {"system": "velvetleaf", "test": "Test Example 5: herbicidal effect by foliage application, plastic box (Table 20, symbol M)", "format": "in vivo, velvetleaf (Abutilon theophrasti)", "conditions": "foliage application, 320 g/ha, three weeks after application", "procedure,_shortened": "as §2"}, "[16]": {"system": "blackgrass", "test": "Test Example 5: herbicidal effect by foliage application, plastic box (Table 20, symbol J)", "format": "in vivo, blackgrass (Alopecurus myosuroides)", "conditions": "foliage application, 320 g/ha, three weeks after application", "procedure,_shortened": "as §2"}, "[17]": {"system": "chickweed", "test": "Test Example 5: herbicidal effect by foliage application, plastic box (Table 20, symbol P)", "format": "in vivo, common chickweed (Stellaria media)", "conditions": "foliage application, 320 g/ha, three weeks after application", "procedure,_shortened": "as §2"}, "[18]": {"system": "wild oat", "test": "Test Example 5: herbicidal effect by foliage application, plastic box (Table 20, symbol I)", "format": "in vivo, wild oat (Avena fatua)", "conditions": "foliage application, 320 g/ha, three weeks after application", "procedure,_shortened": "as §2"}, "[19]": {"system": "Japanese bulrush", "test": "Test Example 1: herbicidal activity, application before weed generation under submerged conditions (Table 16, symbol B)", "format": "in vivo, Japanese bulrush (Schoenoplectus juncoides)", "conditions": "amount of applied herbicide 320 g/ha", "procedure,_shortened": "as §4"}, "[20]": {"system": "lambsquarters", "test": "Test Example 4: herbicidal effect by soil treatment (Table 19, symbol O)", "format": "in vivo, lambsquarters (Chenopodium album)", "conditions": "amount of applied herbicide 320 g/ha", "procedure,_shortened": "as §1"}, "[21]": {"system": "green foxtail", "test": "Test Example 5: herbicidal effect by foliage application, plastic box (Table 20, symbol G)", "format": "in vivo, green foxtail (Setaria viridis)", "conditions": "foliage application, 320 g/ha, three weeks after application", "procedure,_shortened": "as §2"}, "[22]": {"system": "Italian ryegrass", "test": "Test Example 4: herbicidal effect by soil treatment (Table 19, symbol K)", "format": "in vivo, Italian ryegrass (Lolium multiflorum)", "conditions": "amount of applied herbicide 320 g/ha", "procedure,_shortened": "as §1"}, "[23]": {"system": "false cleavers", "test": "Test Example 5: herbicidal effect by foliage application, plastic box (Table 20, symbol Q)", "format": "in vivo, false cleavers (Galium spurium)", "conditions": "foliage application, 320 g/ha, three weeks after application", "procedure,_shortened": "as §2"}, "[24]": {"system": "persian speedwell", "test": "Test Example 5: herbicidal effect by foliage application, plastic box (Table 20, symbol R)", "format": "in vivo, Persian speedwell (Veronica persica)", "conditions": "foliage application, 320 g/ha, three weeks after application", "procedure,_shortened": "as §2"}, "[25]": {"system": "lambsquarters", "test": "Test Example 5: herbicidal effect by foliage application, plastic box (Table 20, symbol O)", "format": "in vivo, lambsquarters (Chenopodium album)", "conditions": "foliage application, 320 g/ha, three weeks after application", "procedure,_shortened": "as §2"}, "[26]": {"system": "windgrass", "test": "Test Example 5: herbicidal effect by foliage application, plastic box (Table 20, symbol L)", "format": "in vivo, windgrass (Apera spica-venti)", "conditions": "foliage application, 320 g/ha, three weeks after application", "procedure,_shortened": "as §2"}, "[27]": {"system": "wild oat", "test": "Test Example 4: herbicidal effect by soil treatment (Table 19, symbol I)", "format": "in vivo, wild oat (Avena fatua)", "conditions": "amount of applied herbicide 320 g/ha", "procedure,_shortened": "as §1"}, "[28]": {"system": "chickweed", "test": "Test Example 4: herbicidal effect by soil treatment (Table 19, symbol P)", "format": "in vivo, common chickweed (Stellaria media)", "conditions": "amount of applied herbicide 320 g/ha", "procedure,_shortened": "as §1"}, "[29]": {"system": "southern crabgrass", "test": "Test Example 4: herbicidal effect by soil treatment (Table 19, symbol F)", "format": "in vivo, southern crabgrass (Digitaria ciliaris)", "conditions": "amount of applied herbicide 320 g/ha", "procedure,_shortened": "as §1"}, "[30]": {"system": "Italian ryegrass", "test": "Test Example 5: herbicidal effect by foliage application, plastic box (Table 20, symbol K)", "format": "in vivo, Italian ryegrass (Lolium multiflorum)", "conditions": "foliage application, 320 g/ha, three weeks after application", "procedure,_shortened": "as §2"}, "[31]": {"system": "Chinese sprangletop", "test": "Test Example 3: herbicidal effect by foliage application, Wagner pot (Table 18, symbol D)", "format": "in vivo, chinese sprangletop (Leptochloa chinensis)", "conditions": "320 g/ha", "procedure,_shortened": "as §3"}, "[32]": {"system": "green foxtail", "test": "Test Example 4: herbicidal effect by soil treatment (Table 19, symbol G)", "format": "in vivo, green foxtail (Setaria viridis)", "conditions": "amount of applied herbicide 320 g/ha", "procedure,_shortened": "as §1"}}}
{"smiles": "COc1ccc2c(-c3c(O)c(C)nn(C)c3=O)c(-c3ccc(SC)cc3)sc2c1", "note": "[3-074]", "values": [{"measurement": "H: barnyard grass, herbicidal effect grade", "setting": "[1]", "value": "0 (Herbicidal rate of 5% or less (almost no effect))"}, {"measurement": "F: southern crabgrass, herbicidal effect grade", "setting": "[2]", "value": "2 (Herbicidal rate of 20% or more and less than 40%)"}, {"measurement": "herbicidal effect on rice flat sedge (E)", "setting": "[3]", "value": "5 (Herbicidal rate of 90% or more (almost completely withered))"}, {"measurement": "Herbicidal effect, C: oval-leafed pondweed", "setting": "[4]", "value": "0 (Herbicidal rate of 5% or less (almost no effect))"}, {"measurement": "Herbicidal effect, A: late watergrass", "setting": "[5]", "value": "0 (Herbicidal rate of 5% or less (almost no effect))"}, {"measurement": "R: persian speedwell, herbicidal effect grade", "setting": "[6]", "value": "5 (Herbicidal rate of 90% or more (almost completely withered))"}, {"measurement": "N: redroot pigweed, herbicidal effect grade", "setting": "[7]", "value": "5 (Herbicidal rate of 90% or more (almost completely withered))"}, {"measurement": "herbicidal effect on barnyard grass (H)", "setting": "[8]", "value": "4 (Herbicidal rate of 70% or more and less than 90%)"}, {"measurement": "J: blackgrass, herbicidal effect grade", "setting": "[9]", "value": "0 (Herbicidal rate of 5% or less (almost no effect))"}, {"measurement": "L: windgrass, herbicidal effect grade", "setting": "[10]", "value": "0 (Herbicidal rate of 5% or less (almost no effect))"}, {"measurement": "Q: false cleavers, herbicidal effect grade", "setting": "[11]", "value": "0 (Herbicidal rate of 5% or less (almost no effect))"}, {"measurement": "N: redroot pigweed, herbicidal effect grade", "setting": "[12]", "value": "5 (Herbicidal rate of 90% or more (almost completely withered))"}, {"measurement": "M: velvetleaf, herbicidal effect grade", "setting": "[13]", "value": "0 (Herbicidal rate of 5% or less (almost no effect))"}, {"measurement": "H: barnyard grass, herbicidal effect grade", "setting": "[14]", "value": "0 (Herbicidal rate of 5% or less (almost no effect))"}, {"measurement": "M: velvetleaf, herbicidal effect grade", "setting": "[15]", "value": "4 (Herbicidal rate of 70% or more and less than 90%)"}, {"measurement": "J: blackgrass, herbicidal effect grade", "setting": "[16]", "value": "0 (Herbicidal rate of 5% or less (almost no effect))"}, {"measurement": "P: chickweed, herbicidal effect grade", "setting": "[17]", "value": "5 (Herbicidal rate of 90% or more (almost completely withered))"}, {"measurement": "I: wild oat, herbicidal effect grade", "setting": "[18]", "value": "0 (Herbicidal rate of 5% or less (almost no effect))"}, {"measurement": "Herbicidal effect, B: Japanese bulrush", "setting": "[19]", "value": "2 (Herbicidal rate of 20% or more and less than 40%)"}, {"measurement": "O: lambsquarters, herbicidal effect grade", "setting": "[20]", "value": "5 (Herbicidal rate of 90% or more (almost completely withered))"}, {"measurement": "G: green foxtail, herbicidal effect grade", "setting": "[21]", "value": "3 (Herbicidal rate of 40% or more and less than 70%)"}, {"measurement": "K: Italian ryegrass, herbicidal effect grade", "setting": "[22]", "value": "0 (Herbicidal rate of 5% or less (almost no effect))"}, {"measurement": "Q: false cleavers, herbicidal effect grade", "setting": "[23]", "value": "5 (Herbicidal rate of 90% or more (almost completely withered))"}, {"measurement": "R: persian speedwell, herbicidal effect grade", "setting": "[24]", "value": "5 (Herbicidal rate of 90% or more (almost completely withered))"}, {"measurement": "O: lambsquarters, herbicidal effect grade", "setting": "[25]", "value": "5 (Herbicidal rate of 90% or more (almost completely withered))"}, {"measurement": "L: windgrass, herbicidal effect grade", "setting": "[26]", "value": "3 (Herbicidal rate of 40% or more and less than 70%)"}, {"measurement": "I: wild oat, herbicidal effect grade", "setting": "[27]", "value": "0 (Herbicidal rate of 5% or less (almost no effect))"}, {"measurement": "P: chickweed, herbicidal effect grade", "setting": "[28]", "value": "3 (Herbicidal rate of 40% or more and less than 70%)"}, {"measurement": "F: southern crabgrass, herbicidal effect grade", "setting": "[29]", "value": "0 (Herbicidal rate of 5% or less (almost no effect))"}, {"measurement": "K: Italian ryegrass, herbicidal effect grade", "setting": "[30]", "value": "0 (Herbicidal rate of 5% or less (almost no effect))"}, {"measurement": "herbicidal effect on Chinese sprangletop (D)", "setting": "[31]", "value": "3 (Herbicidal rate of 40% or more and less than 70%)"}, {"measurement": "G: green foxtail, herbicidal effect grade", "setting": "[32]", "value": "0 (Herbicidal rate of 5% or less (almost no effect))"}]}
